Test results published in US7973162B2, “Modulators of muscarinic receptors” (Vertex Pharmaceuticals Incorporated, priority 2007, dated 2011).

What was measured:
Format in all cases: cell-based
[1] = biological target: T1, M2 muscarinic receptor (Homo sapiens, UniProt P08172); test: Functional mobilization of intracellular calcium (FLIPR), M2-CHO cells; settings: for Emax: 100% efficacy = maximum response obtained with the Carbachol control; for EC50: CHO cells expressing M2, calcium mobilization
T1 construct: expressed in transfected cells; host or cells: CHO (M2-CHO)
T1 sequence (P08172 1-466): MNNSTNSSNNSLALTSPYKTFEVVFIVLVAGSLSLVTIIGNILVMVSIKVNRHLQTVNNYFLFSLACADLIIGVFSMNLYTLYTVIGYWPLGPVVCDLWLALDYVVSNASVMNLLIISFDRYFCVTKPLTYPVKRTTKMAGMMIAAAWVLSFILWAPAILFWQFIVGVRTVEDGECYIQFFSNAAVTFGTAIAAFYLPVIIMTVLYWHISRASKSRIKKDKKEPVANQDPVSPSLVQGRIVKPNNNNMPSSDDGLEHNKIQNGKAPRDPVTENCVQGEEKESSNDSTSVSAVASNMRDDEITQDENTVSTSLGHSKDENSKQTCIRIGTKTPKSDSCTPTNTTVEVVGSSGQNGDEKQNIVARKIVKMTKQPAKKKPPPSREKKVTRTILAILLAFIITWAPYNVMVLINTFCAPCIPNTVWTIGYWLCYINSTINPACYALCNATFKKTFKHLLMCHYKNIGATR
Procedure: (§1) Functional Mobilization of Intracellular Calcium to Determine Muscarinic Receptor Activity:
(§2) CHO cells expressing muscarinic receptors (M1 to M5) are grown as monolayers in tissue culture flasks at 37° C. in a humidified atmosphere containing 5% CO2 and passaged every 3-5 days. The growth media is Dulbecco's modified eagles medium (DMEM, Gibco Cat# 12430-054), containing 25 mM Hepes and supplemented with Fetal Bovine Serum (Hyclone, cat #SH30071.03), 0.1 mM of MEM non-essential amino acids (GIBCO, Cat #11140-050), 1 mM MEM Sodium Pyruvate (GIBCO Cat #11360-070) and 100 units/ml of Penicillin G and 100 μg/ml of Streptomycin (GIBCO Cat #15140-122). The recombinant muscarinic receptor cell lines are grown under antibiotic pressure with media containing 25 μg/ml zeocin and 500 μg/ml G418 (M1-CHO), 4 μg/ml puromycin, 50 μg/ml zeocin and 2.5 μg/ml blasticidin (M2 and M4-CHO) or 50 μg/ml zeocin and 4 μg/ml puromycin (M3 and M5-CHO).
(§3) Cells are harvested at 80-90% confluence using Versene (GIBCO Cat #15040-066), collected by centrifugation and seeded 18-24 hrs prior to running the calcium assay at a density of 5,000-10,000 cells/well in […], clear-bottomed 384-well plates (BD Biocoat, poly-D-lysine, Cat#356663). The day of the experiment, the cells are washed with a plate washer (Bioteck Instruments, ELX 405) using bath1 buffer (140-mM NaCl, 4.5-mM KCl, 2-mM CaCl2, 1-mM MgCl2, 10-mM Hepes-Na, 10-mM Glucose, pH 7.4, with NaOH) containing 1 mM Probenecid. Next, the calcium dye Fluo-3 (25 μl/well of Fluo-3 AM at 4 μM, Molecular Probes F-1241, in Bath 1 buffer containing 1 mM Probenecid) is added to the 25 μl of Bath 1 remaining in each well after the plate wash and the dye is loaded at 37° C. in the tissue culture incubator for 60-90 min. The fluorescent dye is removed using the plate washer with Bath 1 containing 1 mM Probenecid, leaving 25 μl/well of this solution after the wash. Alternatively, cells can be loaded with the calcium indicator from Molecular Devices (Calcium 3 Assay Reagents, Cat #R7181) adding 5 μl of a 5× solution dye in Bath 1 containing 1 mM Probenecid (10 ml per dye flask cat #R7182 to generate a solution 20×) to 20 μl of the same buffer. After loading for 60 min, the experiment can be run without having to remove the dye.
(§4) Compounds are prepared at a 2× fold concentration in a 96-well plate (round bottom, Costar Corning cat #3656), by reconstituting the pre-spotted compounds in bath 1 containing 1 mM probenecid. The final concentration DMSO is 0.5%, and the amount of DMSO is normalized across the assay plate. To determine an agonist action of the compounds on muscarinic receptors, the reconstituted compounds are added (25 μl compound/well) to the cell assay plate (containing 25 μl/well) using the multi-channel robotic system of the FLIPR 3 Instrument (Molecular Devices, Sunnyvale, Calif.). To determine a functional inhibitory action of the compounds on muscarinic receptors, the reconstituted compounds are added (25 μl compound/well) to the assay plate and pre-incubated for 15 min prior to adding 25 μl of Carbachol at 3× the EC80 for each muscarinic subtype. Alternatively, the compounds can be co-applied simultaneously with the agonist. In both assay modes, the fluorescence is recorded for 60 sec (excitation wavelength is […] and emission wavelength 540 nm) using the FLIPR 3 instrument.
(§5) The potency, efficacy and selectivity of the muscarinic compounds were evaluated by screening the compound activity across the whole family (M1 to M5 cells). Compounds were also screened for activity on other proteins such as other GPCRs and ion channels to determine selectivity on M4 receptors.
(§6) Examples of activities and efficacies of the muscarinic compounds of formulae (I, Ia, and Ib) on modulating M1 and M4 receptors are shown below in Table 3. […]

[2] = biological target: T2, M4 muscarinic receptor (Homo sapiens, UniProt P08173); test: Functional mobilization of intracellular calcium (FLIPR), M4-CHO cells; settings: for Emax: 100% efficacy = maximum response obtained with the Carbachol control; for EC50: CHO cells expressing M4, calcium mobilization
T2 construct: expressed in transfected cells; host or cells: CHO (M4-CHO)
T2 sequence (P08173 1-479): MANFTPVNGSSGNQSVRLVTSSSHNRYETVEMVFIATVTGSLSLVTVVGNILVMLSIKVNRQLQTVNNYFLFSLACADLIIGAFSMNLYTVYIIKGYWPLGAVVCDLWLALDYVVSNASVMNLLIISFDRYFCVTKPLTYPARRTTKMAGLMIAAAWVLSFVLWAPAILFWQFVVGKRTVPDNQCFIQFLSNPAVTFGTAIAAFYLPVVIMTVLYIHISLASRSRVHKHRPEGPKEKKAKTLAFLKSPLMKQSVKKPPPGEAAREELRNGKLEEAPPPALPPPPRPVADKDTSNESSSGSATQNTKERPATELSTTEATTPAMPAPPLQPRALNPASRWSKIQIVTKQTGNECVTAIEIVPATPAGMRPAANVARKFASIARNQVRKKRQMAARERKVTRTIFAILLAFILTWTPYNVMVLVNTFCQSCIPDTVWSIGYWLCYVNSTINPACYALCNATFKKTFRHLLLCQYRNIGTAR
Procedure: as §1, §2, §3, §4, §5, §6

[3] = biological target: T3, M3 muscarinic receptor (Homo sapiens, UniProt P20309); test: Functional mobilization of intracellular calcium (FLIPR), M3-CHO cells; settings: for Emax: 100% efficacy = maximum response obtained with the Carbachol control; for EC50: CHO cells expressing M3, calcium mobilization
T3 construct: expressed in transfected cells; host or cells: CHO (M3-CHO)
T3 sequence (P20309 whole entry): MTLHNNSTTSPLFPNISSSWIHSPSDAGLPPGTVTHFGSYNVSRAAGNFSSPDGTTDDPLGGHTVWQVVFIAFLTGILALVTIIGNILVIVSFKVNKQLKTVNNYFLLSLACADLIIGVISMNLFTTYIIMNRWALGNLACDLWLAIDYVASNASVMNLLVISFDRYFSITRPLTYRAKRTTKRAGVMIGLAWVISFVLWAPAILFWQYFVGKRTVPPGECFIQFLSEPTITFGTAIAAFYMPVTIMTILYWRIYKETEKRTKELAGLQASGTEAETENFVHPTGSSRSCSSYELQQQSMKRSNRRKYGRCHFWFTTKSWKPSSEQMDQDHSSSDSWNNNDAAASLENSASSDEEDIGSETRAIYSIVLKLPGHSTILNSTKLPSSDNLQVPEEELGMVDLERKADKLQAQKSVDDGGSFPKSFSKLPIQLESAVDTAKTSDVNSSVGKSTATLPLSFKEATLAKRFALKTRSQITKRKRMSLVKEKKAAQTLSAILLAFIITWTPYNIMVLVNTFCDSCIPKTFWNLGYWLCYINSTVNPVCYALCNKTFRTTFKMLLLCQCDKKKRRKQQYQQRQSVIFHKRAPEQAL
Procedure: as §1, §2, §3, §4, §5, §6

[4] = biological target: T4, M1 muscarinic receptor (Homo sapiens, UniProt P11229); test: Functional mobilization of intracellular calcium (FLIPR), M1-CHO cells; settings: for Emax: 100% efficacy = maximum response obtained with the Carbachol control; for EC50: CHO cells expressing M1, calcium mobilization
T4 construct: expressed in transfected cells; host or cells: CHO (M1-CHO)
T4 sequence (P11229 1-460): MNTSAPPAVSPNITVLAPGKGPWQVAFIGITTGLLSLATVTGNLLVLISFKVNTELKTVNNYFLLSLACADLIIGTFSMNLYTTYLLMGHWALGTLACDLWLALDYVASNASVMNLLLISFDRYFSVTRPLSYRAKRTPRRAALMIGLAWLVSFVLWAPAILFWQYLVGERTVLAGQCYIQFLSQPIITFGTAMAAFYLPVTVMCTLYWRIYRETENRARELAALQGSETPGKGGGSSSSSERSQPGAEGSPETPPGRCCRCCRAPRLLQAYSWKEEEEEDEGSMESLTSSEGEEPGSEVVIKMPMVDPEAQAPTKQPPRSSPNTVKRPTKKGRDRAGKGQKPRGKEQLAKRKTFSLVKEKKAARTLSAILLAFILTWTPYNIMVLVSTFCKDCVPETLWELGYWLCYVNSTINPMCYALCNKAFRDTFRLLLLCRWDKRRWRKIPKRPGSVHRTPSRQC
Procedure: as §1, §2, §3, §4, §5, §6

SMILES	Emax [1] [%]	EC50 [1] [µM]	Emax [2] [%]	EC50 [2] [µM]	Emax [3] [%]	EC50 [3] [µM]	Emax [4] [%]	EC50 [4] [µM]
c1ccc2c(c1)C1OCCC1CC21CCN(C2C[C@H]3CC[C@@H]2C3)CC1 (some centres unmarked) [Compound 6]	< 25	> 5	25 to 100	< 2	< 25	> 5	< 25	> 5
c1ccc2c(c1)C1OCCC1CC21CCN(C2CC3CCC(C3)C2)CC1 (centres unmarked) [Compound 8]	< 25	> 5	25 to 100	< 2	< 25	> 5	25 to 100	> 5
CCOC(=O)N1CCC(N2CCC3(CC2)C[C@H]2CC(=O)N(C)[C@H]2c2ccccc23)CC1 [Compound 12]	25 to 100	< 2	25 to 100	< 2	< 25	> 5	25 to 100	< 2
O=C1C[C@@H]2[C@H](N1)c1ccccc1C21CCN(C[C@H]2C[C@@H]3CC[C@@H]2C3)CC1 [Compound 30]	25 to 100	2 to 5	25 to 100	< 2	< 25	> 5	25 to 100	< 2
CCOC(=O)N1CCC(N2CCC3(CC2)C[C@H]2CC(=O)N(CC(=O)O)[C@H]2c2ccccc23)CC1 [Compound 13]	< 25	> 5	25 to 100	> 5	< 25	> 5	25 to 100	> 5
CC(=O)N1CC[C@@H]2CC3(CCN(C4CCCCC4)CC3)c3ccccc3[C@@H]21 [Compound 27]	< 25	> 5	< 25	> 5	< 25	> 5	< 25	> 5
O=C1C[C@@H]2CC3(CCN(C4CC5CCC(C5)C4)CC3)c3ccccc3[C@@H]2N1 (some centres unmarked) [Compound 5]	25 to 100	< 2	25 to 100	< 2	< 25	> 5	25 to 100	< 2
